Reference: patent publication US20120252896A1, “METHODS AND COMPOSITIONS FOR MODULATION OF T-CELLS VIA THE KYNURENINE PATHWAY” (priority 2009, published 2012)
Read-outs that look alike come from different tables or passages of the source.

Columns and labels:
[1] = test system: Th17 cells (CD4+ T cells under Th17 differentiating conditions; IL-17 production); experiment: IL-17 production by differentiating Th17 cells in vitro (ELISA); format: cell-based, mouse (C57BL/6); conditions: Mus musculus
[2] = test system: Th1 cells (IFNγ production); experiment: IFNγ production by differentiating Th1 cells in vitro (ELISA); format: cell-based, mouse (C57BL/6); conditions: Mus musculus
[3] = test system: differentiating Th1 cells; experiment: Inhibition of IFNγ production during Th1 differentiation (ELISA); format: cell-based, C57BL/6 mice; conditions: differentiating Th1 cells in vitro, 6 days of culture, average ±S.E.
Protocol: For comparison studies with Th1 cells, T cells were differentiated in the same in vitro conditions, with only anti-murine IL-4 neutralizing antibody, recombinant murine IL-2 (10 ng/ml, eBioscience) and recombinant murine IL-12p70 (20 ng/ml, BD Biosciences) and CD3/CD28 stimulation. The concentration of IFN in culture supernatants was measured by ELISA (BD Biosciences). L-kynurenine, 3′-hydroxy-DL-kynurenine, 3′-hydroxyanthranilic acid, anthranilic acid and quinolinic acid (Sigma) were dissolved in RPMI medium under agitation at 1 mM concentration and sterile filtered. Tryptophan metabolites were added individually or in combination, in twofold dilutions, to the differentiating medium of Th1 or Th17 cells for the 6 days of culture.

[4] = test system: differentiating Th17 cells; experiment: Inhibition of IL-17 production by CD4+ T cells under Th17 differentiating conditions (ELISA); format: cell-based, C57BL/6 mice; conditions: for IC50 Th17 (IL-17 production): differentiating Th17 cells in vitro, 6 days of culture, average ±S.E.; for inhibitory effect on IL-17 production: within the range of concentrations assayed
[5] = 144 h, Table II, differentiating Th17 cells, 6 days, average ± S.E., read-out: IC50, IL-17 production, Th17
[6] = Th17 differentiating conditions, read-out: IC50, IL-17 production
[7] = 144 h, Table II, differentiating Th1 cells, 6 days, average ± S.E., read-out: IC50, IFNγ production, Th1

Row | Compound | IC50 [1, 5] | IC50 [1, 6] | IC50 [2, 7] | IC50 ([2]; read-out: IC50, IFNγ production during Th1 differentiation) | IC50 ([3]; Mus musculus, 144 h) | IC50 Th17 (IL-17 production) [4] | inhibitory effect on IL-17 production [4] | IC50 Th1 (IFNγ production) [3]
1 | Nc1c(O)cccc1C(=O)O [3′-Hydroxyanthranilic acid, 3′-hydroxyanthranilic acid] | 27.7 ± 3.7 µM | 27.7 ± 3.7 µM | 57.6 ± 1 µM | 57.6 ± 1 µM | – | – | – | –
2 | Nc1ccccc1C(=O)C[C@H](N)C(=O)O [L-Kynurenine, L-kynurenine] | 100.8 ± 1 µM | 100.8 ± 1 µM | 154.4 ± 1.2 µM | – | – | – | – | –
3 | O=C(O)c1cccnc1C(=O)O [Quinolinic acid, quinolinic acid] | – | – | – | – | 112 ± 1.4 µM | No inhibition | no inhibitory effect | –
4 | Nc1c(O)cccc1C(=O)CC(N)C(=O)O (racemic) [3′-Hydroxy-DL-kynurenine, 3′-hydroxy-DL-kynurenine] | 68.1 ± 1.4 µM | 68.1 ± 1.4 µM | 153.8 ± 1.1 µM | – | – | – | – | –
5 | Nc1ccccc1C(=O)O [Anthranilic acid, anthranilic acid] | – | – | – | – | – | No inhibition | no inhibitory effect | No inhibition
